The record followed here is patent US10927139B2, “Chemically cleavable group” (Tagworks Pharmaceuticals B.V., priority 2012, dated 2021).

Series [1] in a line: Testing the feasibility of the deprotection of TCO compounds upon reaction with tetrazine. Conditions: for 1 h. As to the method: (§1) The feasibility to use the TCO group as a protective group in chemistry was studied by testing the stability of a range of TCO derivatives as model compounds under various conditions, and following the deprotection upon reaction with a tetrazine derivative under these conditions.
Typical Example for Testing the Feasibility of the Deprotection
The TCO stock solution (10 μL 25 mM in acetonitrile; 2.5*10^−7 mol) was added to a solution of the specific condition (100 μL). A solution of 3,6-dimethyl-1,2,4,5-tetrazine (8, 20 μL 25 mM in acetonitrile; 5.0*10^−7 mol) was added, and the mixture was stirred at the specific condition for a certain amount of time. The reaction was monitored by HPLC-MS/PDA analysis and/or GC-MS analysis, and the percentage of deprotection was estimated.
(§2) A) in acetonitrile with 5 equivalents of pyridine per TCO at 20° C.
(§3) B) in acetonitrile with 5 equivalents of DIPEA per TCO at 20° C.
(§4) C) in acetonitrile with 5 equivalents of piperidine per TCO at 20° C.
(§5) D) in acetonitrile with 5 equivalents of n-butylamine per TCO at 20° C.
(§6) E) in acetonitrile with 5 equivalents of 2-mercaptoethanol per TCO at 20° C.
(§7) F) in tetrahydrofuran with 5 equivalents of triphenylphosphine per TCO at 20° C.
(§8) G) in acetonitrile with 5 equivalents of DCC per TCO at 20° C.
(§9) H) in acetonitrile with 5 equivalents of PyBOP per TCO at 20° C.
(§10) I) in acetonitrile with 1 v % of formic acid at 20° C.
(§11) J) in chloroform at 20° C.
(§12) K) in chloroform with 1 v % of formic acid at 20° C.
(§13) L) in chloroform with 1 v % of trifluoroacetic acid at 20° C.
(§14) M) in chloroform with 10 v % of trifluoroacetic acid at 20° C.
(§15) N) in chloroform with 33 v % of trifluoroacetic acid at 20° C.
(§16) Z) in 25% acetonitrile in water at 20° C.

Series [2] is described as follows: Testing the stability of a TCO compound under chemical conditions (HPLC-MS/PDA, GC-MS). In kind it is physicochemical. Conditions: for 1 h. As to the method: as §1
Typical Example for Testing the Stability of a TCO Compound
The TCO stock solution (10 μL 25 mM; 2.5*10^−7 mol) was added to a solution of the specific condition (100 μL). The mixture was stirred at the specific condition for a certain amount of time, and then the fate of the TCO compound was monitored by HPLC-MS/PDA analysis and/or GC-MS analysis, and an estimation of its stability was made.
as §2, §3, §4, §5, §6, §7, §8, §9, §10, §11, §12, §13, §14, §15, §16

The mark [3] stands for this setting: tetrazine 8; A) in acetonitrile with 5 equivalents of pyridine per TCO at 20° C.
Setting [4] is: tetrazine 8; B) in acetonitrile with 5 equivalents of DIPEA per TCO at 20° C.
Setting [5] is: tetrazine 8; G) in acetonitrile with 5 equivalents of DCC per TCO at 20° C.
The mark [6] stands for this setting: tetrazine 8; I) in acetonitrile with 1 v % of formic acid at 20° C.
Where [7] appears, read: tetrazine 8; J) in chloroform at 20° C.
Where [8] appears, read: tetrazine 8; Z) in 25% acetonitrile in water at 20° C.
The mark [9] stands for this setting: A) in acetonitrile with 5 equivalents of pyridine per TCO at 20° C.
Setting [10] is: B) in acetonitrile with 5 equivalents of DIPEA per TCO at 20° C.
[11] abbreviates: G) in acetonitrile with 5 equivalents of DCC per TCO at 20° C.
Setting [12] is: I) in acetonitrile with 1 v % of formic acid at 20° C.
Setting [13] is: Z) in 25% acetonitrile in water at 20° C.

In the case of `O=C(NCc1cccc2ccccc12)OC1/C=C/CCCCC1` (centres unmarked), the “Deprotection (%)” value was 87% in series [1] (setting [3]); 58% in series [1] (setting [4]); 48% in series [1] (tetrazine 8; C) in acetonitrile with 5 equivalents of piperidine per TCO at 20° C.); 47% in series [1] (tetrazine 8; D) in acetonitrile with 5 equivalents of n-butylamine per TCO at 20° C.); 67% in series [1] (tetrazine 8; E) in acetonitrile with 5 equivalents of 2-mercaptoethanol per TCO at 20° C.); 75% in series [1] (tetrazine 8; F) in tetrahydrofuran with 5 equivalents of triphenylphosphine per TCO at 20° C.). Besides, the “Deprotection (%)” value was 74% in series [1] (setting [5]); 74% in series [1] (tetrazine 8; H) in acetonitrile with 5 equivalents of PyBOP per TCO at 20° C.); 93% in series [1] (setting [6]); 73% in series [1] (setting [7]); 98% in series [1] (tetrazine 8; K) in chloroform with 1 v % of formic acid at 20° C.); 99% in series [1] (tetrazine 8; L) in chloroform with 1 v % of trifluoroacetic acid at 20° C.). Further, the “Deprotection (%)” value came to 99% in series [1] (tetrazine 8; M) in chloroform with 10 v % of trifluoroacetic acid at 20° C.) and 85% in series [1] (setting [8]). The “Stability of TCO” value in series [2] (setting [9]), in series [2] (setting [10]), in series [2] (C) in acetonitrile with 5 equivalents of piperidine per TCO at 20° C.), in series [2] (D) in acetonitrile with 5 equivalents of n-butylamine per TCO at 20° C.), in series [2] (E) in acetonitrile with 5 equivalents of 2-mercaptoethanol per TCO at 20° C.) and in series [2] (F) in tetrahydrofuran with 5 equivalents of triphenylphosphine per TCO at 20° C.) was “stable stable stable stable stable stable stable stable stable stable stable stable stable stable” in each case. Besides, the “Stability of TCO” value in series [2] (setting [11]), in series [2] (H) in acetonitrile with 5 equivalents of PyBOP per TCO at 20° C.), in series [2] (setting [12]), in series [2] (J) in chloroform at 20° C.), in series [2] (K) in chloroform with 1 v % of formic acid at 20° C.) and in series [2] (L) in chloroform with 1 v % of trifluoroacetic acid at 20° C.) was “stable stable stable stable stable stable stable stable stable stable stable stable stable stable” each time. Besides, the “Stability of TCO” value in series [2] (M) in chloroform with 10 v % of trifluoroacetic acid at 20° C.) and in series [2] (setting [13]) was “stable stable stable stable stable stable stable stable stable stable stable stable stable stable” in each case.
As to `O=C(Oc1ccc([N+](=O)[O-])cc1)OC1/C=C/CCCCC1` (centres unmarked), the “Deprotection (%)” value in series [1] (setting [3]) was found to be 64%; in series [1] (setting [4]), 90%; in series [1] (setting [5]) it was 72%; in series [1] (setting [6]), 97%; in series [1] (setting [8]), 70%. In addition, the “Stability of TCO” value in series [2] (setting [9]), in series [2] (setting [11]), in series [2] (setting [12]) and in series [2] (setting [13]) was “stable” each time. For the same compound, in series [2] (setting [10]), the “Stability of TCO: hydrolysis” value was determined as 19%.
For the compound `C1=C/C(OCc2ccccc2)CCCCC/1` (centres unmarked), the “Deprotection (%)” value stood at 70% in series [1] (setting [7]) and 54% in series [1] (setting [8]). Besides, the “Stability of TCO” value in series [2] (J) in chloroform at 20° C.) and in series [2] (setting [13]) was “stable stable” each time.
For `O=C(Cc1ccccc1)C(C(=O)OC1/C=C/CCCCC1)c1ccccc1` (centres unmarked), the entries for the “Deprotection (%)” value in series [1] (setting [7]) and in series [1] (setting [8]) were 95% and 70%, respectively. Also, the “Stability of TCO” value in series [2] (J) in chloroform at 20° C.) and in series [2] (setting [13]) was “stable stable” throughout.
As for `O=C(OC1/C=C/CCCCC1)c1ccc([N+](=O)[O-])cc1` (centres unmarked) [drawing 116], the “Deprotection (%)” value in series [1] (setting [3]) is recorded as 68%; in series [1] (setting [4]), 83%; in series [1] (setting [5]), 89%; in series [1] (setting [6]), 95%; in series [1] (setting [8]), 80%. Also, the “Stability of TCO” value in series [2] (setting [9]), in series [2] (setting [11]), in series [2] (setting [12]) and in series [2] (setting [13]) was “stable” throughout. Moreover, the “Stability of TCO: hydrolysis” value in series [2] (setting [10]) is reported as ~2%.
Consider `O=C(OC1/C=C/CCCCC1)c1ccc([N+](=O)[O-])cc1` (centres unmarked) [drawing 118], for which the “Deprotection (%)” value in series [1] (setting [8]) amounted to 66%. Besides, the “Stability of TCO” value in series [2] (setting [13]) is “stable”.
For `C1=C/C(Oc2ccccc2)CCCCC/1` (centres unmarked) [drawing 120], the “Deprotection (%)” value in series [1] (setting [3]) was found to be 42%; in series [1] (setting [4]) it was 92%; in series [1] (setting [5]), 80%; in series [1] (setting [6]), 92%; in series [1] (setting [8]), 87%. In addition, the “Stability of TCO” value in series [2] (setting [9]), in series [2] (setting [10]), in series [2] (setting [11]), in series [2] (setting [12]) and in series [2] (setting [13]) was “stable stable stable stable stable” in each case.
For the compound `C1=C/C(Oc2ccccc2)CCCCC/1` (centres unmarked) [drawing 122], the “Deprotection (%)” value in series [1] (setting [8]) is 72%. Further, in series [2] (setting [13]), the “Stability of TCO” value was “stable”.
As to `Cc1cc(C)cc(NC(=O)OC2/C=C/CCCCC2)c1` (centres unmarked) [drawing 126], the “Deprotection (%)” value in series [1] (setting [3]) stood at 14%; in series [1] (setting [4]), 4%; in series [1] (setting [5]), 61%; in series [1] (setting [6]), 97%. The “Stability of TCO” value in series [2] (setting [9]), in series [2] (setting [10]), in series [2] (setting [11]) and in series [2] (setting [12]) was “stable stable stable stable” throughout.
Take `Cc1cc(C)cc(NC(=O)OC2/C=C/CCCCC2)c1` (centres unmarked) [drawing 128]: the “Deprotection (%)” value in series [1] (setting [3]) was found to be 55%; in series [1] (setting [4]), 39%; in series [1] (setting [5]), 91%; in series [1] (setting [6]) it was 97%. The “Stability of TCO” value in series [2] (setting [9]), in series [2] (setting [10]), in series [2] (setting [11]) and in series [2] (setting [12]) was “stable stable stable stable” in each case.
